Source: the supplement of paper PMC11061612

Legend:
AZD1775 = compound: C=CCn1c(=O)c2cnc(Nc3ccc(N4CCN(C)CC4)cc3)nc2n1-c1cccc(C(C)(C)O)n1 [AZD1775]; conditions: max 3 µM
Summary of the method: (§1)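 Cancer cell lines were dosed for 72 hours (final DMSO typically 0.2%) after 24 hours at 37°C and 5% CO2 in 1536-well plates containing 7.5 μl DMEM/F12 or RPMI with 10% FBS. Viability came from CellTiter-Glo 2.0 luminescence, scaled between blank-well and DMSO-well means, and dose responses were fitted to a two-parameter logistic curve with a non-linear mixed effects model. The single-agent IC50 was obtained from this fit.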

AZD4320 = compound: CN(CC[C@H](CSC1=CC=CC=C1)NC2=C(C=C(C=C2)S(=O)(=O)NC(=O)C3=CC=C(C=C3)N4CCC(CC4)[C@H](C5=CC=CC=C5C6=CC=C(C=C6)Cl)O)S(=O)(=O)C(F)(F)F)CCO [AZD4320]; conditions: max 1 µM
Summary of the method: as §1

Prexasertib = compound: COc1cccc(OCCCN)c1-c1cc(Nc2cnc(C#N)cn2)n[nH]1 [Prexasertib]; conditions: max 1 µM
Summary of the method: as §1

AZD2811 = compound: CCN(CCO)CCCOc1ccc2c(Nc3cc(CC(=O)Nc4cccc(F)c4)[nH]n3)ncnc2c1 [AZD2811]; conditions: max 1 µM
Summary of the method: as §1

AZD0156 = compound: CN(C)CCCOc1ccc(-c2ccc3ncc4c(c3c2)n(C2CCOCC2)c(=O)n4C)cn1 [AZD0156]; conditions: max 3 µM
Summary of the method: as §1

Selumetinib = compound: Cn1cnc2c(F)c(Nc3ccc(Br)cc3Cl)c(C(=O)NOCCO)cc21 [Selumetinib]; conditions: max 10 µM
Summary of the method: as §1

SG3199 = compound: CC1=CN2[C@@H](C1)C=NC3=CC(=C(C=C3C2=O)OC)OCCCCCOC4=C(C=C5C(=C4)N=C[C@@H]6CC(=CN6C5=O)C)OC [SG3199]; conditions: max 0.001 µM
Summary of the method: as §1

5-Fluorouracil = compound: O=c1[nH]cc(F)c(=O)[nH]1 [5-Fluorouracil]; conditions: max 20 µM
Summary of the method: as §1

Carboplatin = compound: C1CC(C1)(C(=O)[O-])C(=O)[O-].N.N.[Pt+2] [Carboplatin]; conditions: max 10 µM
Summary of the method: as §1

Crizotinib = compound: C[C@@H](Oc1cc(-c2cnn(C3CCNCC3)c2)cnc1N)c1c(Cl)ccc(F)c1Cl [Crizotinib]; conditions: max 10 µM
Summary of the method: as §1

[1] = compound: O=C(Nc1ccc2[nH]nc(-c3ccncc3)c2c1)[C@@H]1CCN(CC(=O)N2CCN(c3ccc(-c4ncccn4)cc3)CC2)C1; conditions: max 5 µM
Summary of the method: as §1

AZD6738 = compound: C[C@@H]1COCCN1C2=NC(=NC(=C2)C3(CC3)[S@](=N)(=O)C)C4=C5C=CNC5=NC=C4 [AZD6738]; conditions: max 10 µM
Summary of the method: as §1

Venetoclax = compound: CC1(C)CCC(CN2CCN(c3ccc(C(=O)NS(=O)(=O)c4ccc(NCC5CCOCC5)c([N+](=O)[O-])c4)c(Oc4cnc5[nH]ccc5c4)c3)CC2)=C(c2ccc(Cl)cc2)C1 [Venetoclax]; conditions: max 1 µM
Summary of the method: as §1

Dasatinib = compound: CC1=C(C(=CC=C1)Cl)NC(=O)C2=CN=C(S2)NC3=CC(=NC(=N3)C)N4CCN(CC4)CCO [Dasatinib]; conditions: max 2 µM
Summary of the method: as §1

AZD1390 = compound: CC(C)n1c(=O)n(C)c2cnc3cc(F)c(-c4ccc(OCCCN5CCCCC5)nc4)cc3c21 [AZD1390]; conditions: max 0.3 µM
Summary of the method: as §1

Olaparib = compound: O=C(c1cc(Cc2n[nH]c(=O)c3ccccc23)ccc1F)N1CCN(C(=O)C2CC2)CC1 [Olaparib]; conditions: max 10 µM
Summary of the method: as §1

Etoposide = compound: COc1cc([C@@H]2c3cc4c(cc3[C@@H](O[C@@H]3O[C@@H]5CO[C@@H](C)O[C@H]5[C@H](O)[C@H]3O)[C@H]3COC(=O)[C@H]23)OCO4)cc(OC)c1O [Etoposide]; conditions: max 10 µM
Summary of the method: as §1

Trametinib = compound: CC(=O)Nc1cccc(-n2c(=O)n(C3CC3)c(=O)c3c(Nc4ccc(I)cc4F)n(C)c(=O)c(C)c32)c1 [Trametinib]; conditions: max 1 µM
Summary of the method: as §1

SN-38 = compound: CCc1c2c(nc3ccc(O)cc13)-c1cc3c(c(=O)n1C2)COC(=O)[C@]3(O)CC [SN-38]; conditions: max 0.3 µM
Summary of the method: as §1

Taselisib = compound: Cc1nc(-c2cn3c(n2)-c2ccc(-c4cnn(C(C)(C)C(N)=O)c4)cc2OCC3)n(C(C)C)n1 [Taselisib]; conditions: max 10 µM
Summary of the method: as §1

Palbociclib = compound: CC(=O)c1c(C)c2cnc(Nc3ccc(N4CCNCC4)cn3)nc2n(C2CCCC2)c1=O [Palbociclib]; conditions: max 10 µM
Summary of the method: as §1

Gemcitabine = compound: Nc1ccn([C@@H]2O[C@H](CO)[C@@H](O)C2(F)F)c(=O)n1 [Gemcitabine]; conditions: max 0.3 µM
Summary of the method: as §1

Savolitinib = compound: C[C@@H](c1ccc2nccn2c1)n1nnc2ncc(-c3cnn(C)c3)nc21 [Savolitinib]; conditions: max 1 µM
Summary of the method: as §1

Doxorubicin = compound: COc1cccc2c1C(=O)c1c(O)c3c(c(O)c1C2=O)C[C@@](O)(C(=O)CO)C[C@@H]3O[C@H]1C[C@H](N)[C@H](O)[C@H](C)O1 [Doxorubicin]; conditions: max 1 µM
Summary of the method: as §1

AZD5153 = compound: COc1nnc2ccc(N3CCC(c4ccc(OCCN5CCN(C)C(=O)[C@H]5C)cc4)CC3)nn12 [AZD5153]; conditions: max 1 µM
Summary of the method: as §1

Lapatinib = compound: CS(=O)(=O)CCNCc1ccc(-c2ccc3ncnc(Nc4ccc(OCc5cccc(F)c5)c(Cl)c4)c3c2)o1 [Lapatinib]; conditions: max 10 µM
Summary of the method: as §1

Gefitinib = compound: COc1cc2ncnc(Nc3ccc(F)c(Cl)c3)c2cc1OCCCN1CCOCC1 [Gefitinib]; conditions: max 10 µM
Summary of the method: as §1

AZD8186 = compound: C[C@@H](Nc1cc(F)cc(F)c1)c1cc(C(=O)N(C)C)cc2c(=O)cc(N3CCOCC3)oc12 [AZD8186]; conditions: max 10 µM
Summary of the method: as §1

Paclitaxel = compound: CC(=O)O[C@H]1C(=O)[C@@]2(C)[C@H]([C@H](OC(=O)c3ccccc3)[C@]3(O)C[C@H](OC(=O)[C@H](O)[C@@H](NC(=O)c4ccccc4)c4ccccc4)C(C)=C1C3(C)C)[C@]1(OC(C)=O)CO[C@@H]1C[C@@H]2O [Paclitaxel]; conditions: max 3 µM
Summary of the method: as §1

MK-2206 = compound: NC1(c2ccc(-c3nc4ccn5c(=O)[nH]nc5c4cc3-c3ccccc3)cc2)CCC1 [MK-2206]; conditions: max 10 µM
Summary of the method: as §1

Alisertib = compound: COc1cc(Nc2ncc3c(n2)-c2ccc(Cl)cc2C(c2c(F)cccc2OC)=NC3)ccc1C(=O)O [Alisertib]; conditions: max 10 µM
Summary of the method: as §1

AZD7648 = compound: Cc1cc2ncnn2cc1Nc1ncc2c(n1)n(C1CCOCC1)c(=O)n2C [AZD7648]; conditions: max 10 µM
Summary of the method: as §1

SRA737 = compound: N#Cc1cnc(Nc2cc(NC[C@H]3CNCCO3)c(C(F)(F)F)cn2)cn1 [SRA737]; conditions: max 10 µM
Summary of the method: as §1

AZD5991 = compound: Cc1c2c(nn1C)CSCc1cc(n(C)n1)CSc1cc(c3ccccc3c1)OCCCc1c(C(=O)O)n(C)c3c-2c(Cl)ccc13 [AZD5991]; conditions: max 1 µM
Summary of the method: as §1

AZD5363 = compound: C1CN(CCC1(C(=O)N[C@@H](CCO)C2=CC=C(C=C2)Cl)N)C3=NC=NC4=C3C=CN4 [AZD5363]; conditions: max 10 µM
Summary of the method: as §1

Cell Line	IC50, cell viability 72 h (AZD1775)	IC50, cell viability 72 h (AZD4320)	IC50, cell viability 72 h (Prexasertib)	IC50, cell viability 72 h (AZD2811)	IC50, cell viability 72 h (AZD0156)	IC50, cell viability 72 h (Selumetinib)	IC50, cell viability 72 h (SG3199)	IC50, cell viability 72 h (5-Fluorouracil)	IC50, cell viability 72 h (Carboplatin)	IC50, cell viability 72 h (Crizotinib)	IC50, cell viability 72 h [1]	IC50, cell viability 72 h (AZD6738)	IC50, cell viability 72 h (Venetoclax)	IC50, cell viability 72 h (Dasatinib)	IC50, cell viability 72 h (AZD1390)	IC50, cell viability 72 h (Olaparib)	IC50, cell viability 72 h (Etoposide)	IC50, cell viability 72 h (Trametinib)	IC50, cell viability 72 h (SN-38)	IC50, cell viability 72 h (Taselisib)	IC50, cell viability 72 h (Palbociclib)	IC50, cell viability 72 h (Gemcitabine)	IC50, cell viability 72 h (Savolitinib)	IC50, cell viability 72 h (Doxorubicin)	IC50, cell viability 72 h (AZD5153)	IC50, cell viability 72 h (Lapatinib)	IC50, cell viability 72 h (Gefitinib)	IC50, cell viability 72 h (AZD8186)	IC50, cell viability 72 h (Paclitaxel)	IC50, cell viability 72 h (MK-2206)	IC50, cell viability 72 h (Alisertib)	IC50, cell viability 72 h (AZD7648)	IC50, cell viability 72 h (SRA737)	IC50, cell viability 72 h (AZD5991)	IC50, cell viability 72 h (AZD5363)
EW-3 (Ewing's Sarcoma)	2300 nM	27.6 nM	183 nM	> 1000 nM	> 3000 nM	> 10000 nM	> 1 nM	> 20000 nM	> 10000 nM	9570 nM	> 5000 nM	2030 nM	401 nM	> 2000 nM	> 300 nM	> 10000 nM	1100 nM	> 1000 nM	2.07 nM	> 10000 nM	> 10000 nM	8.11 nM	> 1000 nM	86.7 nM	496 nM	> 10000 nM	> 10000 nM	> 10000 nM	17.5 nM	> 10000 nM	8570 nM	> 10000 nM	> 10000 nM	470 nM	> 10000 nM
GI-1 (Glioblastoma)	755 nM	> 1000 nM	17.8 nM	> 1000 nM	> 3000 nM	> 10000 nM	> 1 nM	> 20000 nM	> 10000 nM	5430 nM	> 5000 nM	2100 nM	> 1000 nM	> 2000 nM	> 300 nM	> 10000 nM	4030 nM	> 1000 nM	9.55 nM	3040 nM	> 10000 nM	53.3 nM	> 1000 nM	670 nM	303 nM	> 10000 nM	> 10000 nM	9590 nM	10.2 nM	> 10000 nM	> 10000 nM	> 10000 nM	3870 nM	737 nM	7330 nM
